{
  "source": "patent US6291496A",
  "about": "“Treating cancers associated with overexpression of class I family of receptor tyrosine kinases” (priority 1999, dated 2001)",
  "key": {"HER-2/neu in BT474 cells": {"system": "HER-2/neu in BT474 cells", "test": "immunoblot for HER-2/neu in BT474 cells", "assay_type": "cell-based, human", "conditions": "25 μM ciglitazone", "description": "The 184B5/HER cell line was obtained from a collaborator and was derived by stably transfecting 184B5 cells with a mutationally activated HER-2/neu oncogene; these cells form rapidly growing tumors when injected into athymic nude mice. The 184B5/HER cell line is described in Pierce, J. H., et al., Oncogene 6, 1189-1194 (1991). The BT-474 cell line is a human breast cancer adenocarcinoma cell line which overexpresses HER-2/neu, and was obtained from the American Type Culture Collection (Manassas, Va.) and bears accession number ATCC HBT-20.\n184B5/HER cells were maintained in MEM-KBM mixed in a ratio of 1:1 (basal medium) containing epidermal growth factor (10 ng/ml), hydrocortisone (0.5 μg/ml), transferrin (10 μg/ml), gentamicin (5 μg/ml) and insulin (10 μg/ml) (growth medium). […] cells were grown to 60% confluence, trypsinized with 0.05% trypsin-2 mM ethylenediaminotetraacetic acid, and plated for experimental use. […]\n184B5/HER cells were treated with vehicle (0.01% dimethylsulfoxide), 25 μM ciglitazone (Biomol, Plymouth Meeting, Pennsylvania) or 20 μM 15-d-PGJ2 (Biomol, Plymouth Meeting, Pennsylvania) for 24 hours. […] The protein concentration of the supernatant was measured by the method of Lowry, O. H., et al, J. Biol. Chem. 193, 265-275 (1951). […]"}, "HER-2/neu transcription": {"system": "HER-2/neu transcription", "test": "nuclear run-off assay of HER-2/neu transcription in 184B5/HER cells", "assay_type": "cell-based, human", "conditions": "ciglitazone 5, 10 or 25 μM, 24 hours", "method": "(§1) To determine whether PPARγ ligands inhibit the transcription of HER-2/neu, a nuclear run-off assay was carried out. 184B5/HER cells were treated with vehicle (0.01% dimethyl sulfoxide) or ciglitazone (5,10 or 25 μM) for 24 hours. 2.5×10^5 cells were plated in four T150 dishes for each condition. Cells were grown in growth medium until 60% confluent. Nuclei were isolated and stored in liquid nitrogen. The HER-2/neu and 18S rRNA cDNAs were immobilized on a nitrocellulose membrane (Schleicher & Schuell, Keene, N.H.) and prehybridized overnight in hybridization buffer."}, "[1]": {"system": "EGFR in 184B5 mammary epithelial cells", "test": "immunoblot for EGFR in 184B5 cells", "assay_type": "cell-based, human", "conditions": "ciglitazone 5-30 μM or 15-d-PGJ2 5, 10 μM, 24 hours", "method": "The cells used were 184B5 cells. The 184B5 cell line was obtained from a collaborator and is an immortalized but non-tumorigenic human breast epithelial cell line that was established from a reduction mammaplasty and is described in Stampler, M. R, et al, Proc. Natl. Acad. Sci. USA 82, 2394-2398 (1985).\n184B5 cells were maintained in MEM-KBM mixed in a ratio of 1:1 (basal medium) containing epidermal growth factor (10 ng/ml), hydrocortisone (0.5 μg/ml), transferrin (10 μg/ml), gentamicin (5 μg/ml), and insulin (10 μg/ml) (growth medium). 184B5 cells were grown to 60% confluence, trypsinized with 0.05% trypsin-2 mM ethylenediaminotetraacetic acid and plated for experimental use.\n184B5 cells were treated with vehicle (0.01% dimethyl sulfoxide), ciglitazone (5, 10, 20, 30 μM) or 15-d-PGJ2 (5, 10 μM) for 24 hours. Cell lysates were prepared in RIPA buffer. Lysates were sonicated for 20 seconds on ice and centrifuged at 10,000×g for 10 minutes to sediment the particulate material. The protein concentration of the supernatant was measured by the method of Lowry,. O. H., et al, J. Biol. Chem. 193, 265-275 (1951). Cellular lysate protein (100 μg/lane) was loaded onto a 10% SDS-polyacrylamide gel, electrophoresed and subsequently transferred onto a nitrocellulose membrane(Schleicher & Schuell Keene, N. H.). […]"}, "EGFR transcription": {"system": "EGFR transcription", "test": "nuclear run-off assay of EGFR transcription in 184B5 cells", "assay_type": "cell-based, human", "conditions": "ciglitazone 5, 10, 25 μM, 24 hours", "method": "as §1, with “of EGFR,” for “of HER-2/neu,”, “out. 184B5” for “out. 184B5/HER”, “ciglitazone (5, 10,” for “ciglitazone (5,10 or”, “The EGFR” for “The HER-2/neu”, “immobilized onto” for “immobilized on”"}, "[2]": {"system": "HER-2/neu positive breast cancer", "test": "Example I: adjuvant therapy after mastectomy", "assay_type": "in vivo, human", "conditions": "patient, oral 5 mg/kg twice per day for five years after mastectomy"}, "[3]": {"system": "HER-2/neu positive breast cancer metastasized to lung and liver", "test": "Example III: breast cancer metastasized to lung and liver", "assay_type": "in vivo, human", "conditions": "patient, oral 5 mg/kg twice daily", "method": "After three months, the PPARγ ligand administration is continued in combination regimen with Taxol® at a dose of 175 mg/m^2 administered intravenously every three weeks."}, "[4]": {"system": "HER-2/neu positive breast cancer metastasized to bone", "test": "Example IV: breast cancer metastasized to bone", "assay_type": "in vivo, human", "conditions": "patient after failure of prior chemotherapy, oral 5 mg/kg twice daily plus HERCEPTIN", "method": "After 90 days, oral cyclophosphamide at a dose of 3 mg/kg/day and doxorubicin administered intravenously weekly at a dose of 20 mg/m^2, are added to the drug regimen."}, "[5]": {"system": "head and neck carcinoma where EGFR is overexpressed", "test": "Example VII: head and neck carcinoma", "assay_type": "in vivo, human", "conditions": "after the 12 weeks of CETUXIMAB and cisplatin, oral 5 mg/kg twice daily for 12 weeks", "method": "Concurrently cisplatin is infused every four weeks at 60 mg/m^2."}, "[6]": {"molecular_target": "human PPARγ binding domain", "conditions": "scintillation proximity assay, radioligand [3H]BRL 49653; values reported in Henke et al, Collins et al, Cobb et al; cited from earlier work"}},
  "data": [
    {"smiles": "CC1(COc2ccc(CC3SC(=O)NC3=O)cc2)CCCCC1", "note": "(stereo not drawn) [ciglitazone]", "values": [
      {"measurement": "amounts of HER-2/neu (immunoblot)", "setting": "HER-2/neu in BT474 cells", "value": "decreased amounts of HER-2/neu"},
      {"measurement": "HER-2/neu transcription (nuclear run-off)", "setting": "HER-2/neu transcription", "value": "dose-dependent suppression of HER-2/neu transcription"},
      {"measurement": "amounts of EGFR (immunoblot)", "setting": "[1]", "value": "decreased amounts of EGFR"},
      {"measurement": "EGFR transcription (nuclear run-off)", "setting": "EGFR transcription", "value": "dose-dependent suppression of EGFR transcription"},
      {"measurement": "recurrence of breast cancer", "setting": "[2]", "value": "Recurrence of breast cancer does not occur"},
      {"measurement": "tumor burden", "setting": "[3]", "value": "reduced tumor burden"},
      {"measurement": "tumor burden", "setting": "[4]", "value": "reduced tumor burden"},
      {"measurement": "tumor burden", "setting": "[5]", "value": "further reduced tumor burden"},
      {"measurement": "pKi in binding assay using the human PPARγ binding domain", "setting": "[6]", "value": "5.51±0.09"}
    ]}
  ]
}
